Test results from patent publication US20240207421A1, “NERVE TARGETING PEPTIDES AND METHODS OF USE” (ALUME BIOSCIENCES, INC., priority 2020, published 2024).

Experiments:
[1] = test system: excised human nerve tissue (or nerve extracts); experiment: Phage display library screening (Example 2), NEB tissue-binding peptides: nerve tissue and nerve extracts versus muscle; conditions: unique sequence count, peptides not binding muscle extracts; for Count Excised Nerve: tissue target: excised nerve; for Count Nerve Extract: tissue target: nerve extract; for Count Neuron: tissue target: neuron
Procedure: (§1) Phage display library screens were used to identify peptides that bind to target proteins (including specific laminin trimers) that are expressed in human nerves, as described in Table 3. These screens were also carried out to identify peptides that could bind selectively to nerves versus muscle. Such peptides could therefore be useful for systemic in-vivo labeling of nerves during fluorescence assisted surgery. Specifically, m 13 phage libraries expressing 7 or 12 random amino acid peptides, or a cyclic peptide CX7C, on the N-terminus of the minor coat protein pIII (New England Biolabs; NEB) were processed through multiple rounds of selection for binding to target proteins expressed in nerves, or to excised human nerves, nerve extracts, or muscle, as described further below.
To identify peptides selective for nerves versus muscle, phage from the same libraries used for specific target proteins were used to screen against excised human nerve tissue (or nerve extracts) and human muscle tissue.
Excised Nerve Tissue: Phage were processed through multiple cycles of selection, with representative phage being isolated and sequenced after each selection cycle. Specifically, for selection using human nerve tissue, a sample of […] tissue (2 mm by 2 mm) was washed prior to mixing and incubation with a phage library. After incubation, the mixture (containing mostly intact nerves with phage particles that had variable affinity for nerves) was centrifuged and the nerve pellet washed multiple times with PBS to remove phage with little or no affinity for nerve tissue. The pellet was homogenized and plated for titering and reamplification. Phage that were bound at each round were sequenced. NextGen sequencing of pools after 2, 3 and 4 rounds of selection were used to isolate candidate sequences that were further analyzed using bioinformatics.
Nerve Extracts: Phage libraries were incubated for up to 24 hours at 4° C. in 96 well plates that had been coated with a human nerve extract. Plates were then washed with PBS and phage were eluted using 0.2M glycine pH 2.0. Phage supernatants where then neutralized with Tris pH 9.0 prior to plating on TG1 bacteria and LB agar plates. Colonies were counted to determine titer followed by DNA preparation of pools of phage and NextGen sequencing. After rounds of selection, phage were pooled and amplified for iterative selection. Phage that eluted by 0.2M glycine pH 2.0 (the nerve binders) at each round were sequenced. NextGen sequencing of pools after 2, 3 and 4 rounds of selection were used to isolate candidate sequences that were further analyzed using bioinformatics.
Muscle Tissue: Phage were processed through multiple cycles of selection, with representative phage being isolated and sequenced after each selection cycle. Specifically, for selection using human skeletal muscle tissue, a sample of skeletal muscle tissue (2 mm by 2 mm) was washed prior to mixing and incubation with a phage library. After incubation, the mixture (containing mostly intact muscle with phage particles that had variable affinity for muscle) was centrifuged and the muscle pellet washed multiple times with PBS to remove phage with little or no affinity for muscle tissue. The pellet was then homogenized and plated for titering and reamplification. Phage that were bound at each round were sequenced. NextGen sequencing of pools after 2, 3 and 4 rounds of selection were used to isolate candidate sequences that were further analyzed using bioinformatics.
For all NEB sequence datasets, a python script was used to translate, trim, and filter the peptide sequences (see details above). A python script was used to group peptides from different assays according to tissue target (muscle, nerve, neuron, or nerve extract) and combine the unique sequence counts for each peptide. […]

Laminin 421/521 = experiment: Phage display library screening (Example 2), NEB laminin-binding peptides; design: species or system human; conditions: Laminin 421/521, not 211 and 411; combined unique sequence count, Python/R script analysis
Procedure: as §1
For screening against the specified target proteins in Table 1, including LN211, LN411, LN421, and LN521, the phage library was processed by up to 4 binding and wash cycles. For selection, phage libraries were incubated for up to 24 hours at 4° C. in 96 well plates that had been coated with one of the target proteins. Plates were then washed with PBS and phage were eluted using 0.2M glycine pH 2.0. Phage supernatants where then neutralized with Tris pH 9.0 prior to plating on TGI bacteria and LB agar plates. Colonies were counted to determine titer followed by DNA preparation of pools of phage and NextGen sequencing. After rounds of selection, phage were pooled and amplified for iterative selection. Phage that were bound at each round were sequenced. NextGen sequencing of pools after 2, 3 and 4 rounds of selection was used to isolate candidate sequences that were analyzed further to identify those that specifically bound each unique target protein.
For all NEB sequence datasets, a python script was used to translate, trim, and filter the peptide sequences (see details above). A python script was used to group peptides from different assays according to laminin complex binding (laminin complex 211, 411, 421, or 521) and combine the unique sequence counts for each peptide. An R script was written to merge the peptide sequences from different data files and determine peptides that specifically bind one laminin complex and not the others, or that bind both laminin 421 and 521 but not 211 and 411.

| Substance | Count (Laminin 421/521) | also measured |
| --- | --- | --- |
| DELVGGAPWYKS | – | Count Excised Nerve [1]: 20; Count Nerve Extract [1]: 27; Count Neuron [1]: 7 |
| VRLPMLASMGHQ | – | Count Excised Nerve [1]: 19; Count Nerve Extract [1]: 40; Count Neuron [1]: 21 |
| GTVSYMVKMDNN | – | Count Excised Nerve [1]: 9; Count Nerve Extract [1]: 16; Count Neuron [1]: 7 |
| AFRFEFQVPDSH | – | Count Excised Nerve [1]: 7; Count Nerve Extract [1]: 18; Count Neuron [1]: 11 |
| GHAHSLTQNPLF | – | Count Excised Nerve [1]: 10; Count Nerve Extract [1]: 18; Count Neuron [1]: 8 |
| MLKMERPGRMAY | – | Count Excised Nerve [1]: 9; Count Nerve Extract [1]: 15; Count Neuron [1]: 6 |
| GWNEATNSARHT | – | Count Excised Nerve [1]: 26; Count Nerve Extract [1]: 32; Count Neuron [1]: 6 |
| GWANSITYRNLY | – | Count Excised Nerve [1]: 17; Count Nerve Extract [1]: 26; Count Neuron [1]: 9 |
| EPWQSRDKVIEE | – | Count Excised Nerve [1]: 8; Count Nerve Extract [1]: 16; Count Neuron [1]: 8 |
| CSHHKLKQC (Laminin 421/521-binding peptide) | 359 | – |
| GDVITAYINPWP (Laminin 421/521-binding peptide) | 39 | – |
| CHQRQQTYC (Laminin 421/521-binding peptide) | 55 | – |
| WAFKAPQ (Laminin 421/521-binding peptide) | 61 | – |
| SGWEGKTHQGVR (Laminin 421/521-binding peptide) | 69 | – |
| WGANTTGRTHGG (Laminin 421/521-binding peptide) | 40 | – |
| ADMPQMTLKYGV (Laminin 421/521-binding peptide) | 47 | – |
| CTPRSATLC (Laminin 421/521-binding peptide) | 37 | – |
| CGETTAGKC (Laminin 421/521-binding peptide) | 33 | – |
| NHDQGSLTRWRS (Laminin 421/521-binding peptide) | 31 | – |
| QGHPFIY (Laminin 421/521-binding peptide) | 40 | – |
| CQGWPRPMC (Laminin 421/521-binding peptide) | 30 | – |
| ATSKYPNSWAQT (Laminin 421/521-binding peptide) | 80 | – |
| GFADVIHRKWSS (Laminin 421/521-binding peptide) | 53 | – |
| GWIQDTFVLGRS (Laminin 421/521-binding peptide) | 40 | – |
| WNANYGTMTRHA (Laminin 421/521-binding peptide) | 92 | – |
| DSLYRGMHQPRI (Laminin 421/521-binding peptide) | 29 | – |

| Substance | Count (Laminin 421/521) | also measured |
| --- | --- | --- |
| CLNQKWEAC (Laminin 421/521-binding peptide) | 64 | – |
| CKSERGPEC (Laminin 421/521-binding peptide) | 30 | – |
| WVAAERR (Laminin 421/521-binding peptide) | 115 | – |
| CKWTQLWGC (Laminin 421/521-binding peptide) | 40 | – |
| TAPRWTQ (Laminin 421/521-binding peptide) | 30 | – |
| HTQIHRL (Laminin 421/521-binding peptide) | 28 | – |
| WRSPLTT (Laminin 421/521-binding peptide) | 30 | – |
| WEEHRVEILPDV (Laminin 421/521-binding peptide) | 38 | – |
| AQGVWWSEWFAP (Laminin 421/521-binding peptide) | 42 | – |
| ANRYLAS (Laminin 421/521-binding peptide) | 40 | – |
| AHAAGRDMRQGT (Laminin 421/521-binding peptide) | 36 | – |
| ALPWQSGVHGTK (Laminin 421/521-binding peptide) | 34 | – |
| GRTIHSM (Laminin 421/521-binding peptide) | 95 | – |
| STNVQRA (Laminin 421/521-binding peptide) | 28 | – |
| LLAGPFR (Laminin 421/521-binding peptide) | 44 | – |
| FPLKIRT (Laminin 421/521-binding peptide) | 42 | – |
| TTNGVPGHDRSP (Laminin 421/521-binding peptide) | 46 | – |
| SWHFTGTPFMNR (Laminin 421/521-binding peptide) | 28 | – |
| LARSSIMAANNV (Laminin 421/521-binding peptide) | 42 | – |
| CGLATNKSC (Laminin 421/521-binding peptide) | 39 | – |
| SDRGKTVLHGQI (Laminin 421/521-binding peptide) | 54 | – |
| TILKPAAQGFAD (Laminin 421/521-binding peptide) | 27 | – |
| SWQMRSY (Laminin 421/521-binding peptide) | 48 | – |
| GSPEKRT (Laminin 421/521-binding peptide) | 30 | – |
| SPDRTNWGWQTN (Laminin 421/521-binding peptide) | 29 | – |
| WDLPTLRKTKQA (Laminin 421/521-binding peptide) | 114 | – |

| Substance | Count (Laminin 421/521) | also measured |
| --- | --- | --- |
| RNLHYPLNHPFM (Laminin 421/521-binding peptide) | 30 | – |
| VVPSWPSVHRPP (Laminin 421/521-binding peptide) | 31 | – |
| WGLKLPH (Laminin 421/521-binding peptide) | 117 | – |
| NNNAAMQNHGVR (Laminin 421/521-binding peptide) | 51 | – |
| TSAVSLR (Laminin 421/521-binding peptide) | 27 | – |
| VYRNGGGLPLTA (Laminin 421/521-binding peptide) | 34 | – |
| DGANMENIAPAN | 27 | – |
| MTHSAHNSQKTN (Laminin 421/521-binding peptide) | 117 | – |
| AGAYTSRHAFDE (Laminin 421/521-binding peptide) | 39 | – |
| CHNADNNGC (Laminin 421/521-binding peptide) | 32 | – |
| CSLANPATC (Laminin 421/521-binding peptide) | 52 | – |
| CTDGRNFVC (Laminin 421/521-binding peptide) | 28 | – |
| DRMYSTVPAEGL (Laminin 421/521-binding peptide) | 27 | – |
| GGYDLPWANWQN (Laminin 421/521-binding peptide) | 497 | – |
| WPVRNLL (Laminin 421/521-binding peptide) | 67 | – |
| SYTATWSEMSRS (Laminin 421/521-binding peptide) | 28 | – |
| TFGSGRSMPIQY (Laminin 421/521-binding peptide) | 34 | – |
| RAQAHQV (Laminin 421/521-binding peptide) | 51 | – |
| KFADTKLTSLRY (Laminin 421/521-binding peptide) | 28 | – |
| AVYPLDLGAGMR (Laminin 421/521-binding peptide) | 46 | – |
| CSKHNHSRC (Laminin 421/521-binding peptide) | 295 | – |
| SVVGWAAPRTAQ (Laminin 421/521-binding peptide) | 27 | – |
| QINWKQADKNAD (Laminin 421/521-binding peptide) | 33 | – |
| SYDGTMLKQVRL (Laminin 421/521-binding peptide) | 36 | – |
